Data reported in patent US11286258B2, “Nature-inspired anticancer and antibacterial motifs and pharmaceutical composition thereof” (University of Sharjah, priority 2020, dated 2022).
In brackets after ≈: the same amount, converted by molar mass.

Columns and labels:
[1] = system: HCT-116; experiment: MTT cell viability, HCT-116; format: cell-based; conditions: Homo sapiens, colon cancer, 48 h of drug treatment, average of three experiments
From the text: (§1) Cell culture: In this study five different cancer cell lines were used, human lung carcinoma (A549), human breast adenoma (MCF-7), Cervical carcinoma (Hela), hepatocellular carcinoma (Hep3B), and colorectal adenocarcinoma (HCT-116). These cells were obtained from the European Collection of Cell Cultures (ECACC, UK). Hep3B cells were maintained in Dulbecco's Modified Eagle Medium (DMEM: Sigma-Aldrich), and the four other cell lines were maintained in Roswell Park Memorial Institute medium (RPMI, Sigma-Aldrich, St. Louis, Mo., USA), which was supplemented with 10% fetal bovine serum (FBS, Sigma-Aldrich) and 1% penicillin/streptomycin (Sigma-Aldrich). Cells were incubated all the time at 37° C. in a humidified atmosphere of 5% CO2. Cell viability studies: Cell viability was assessed using the MTT assay as described before. In brief, all cancer cell lines were seeded at a density of 4×10^4/well in 96 well flat-bottom plates. After 24 h from seeding, cells were treated with the synthesized compounds and left for an incubation period of 48 h. Upon reaching the indicated time point, the media was removed and replaced with 200 μL fresh media containing 0.5 mg/mL of MTT tetrazolium dye (Sigma-Aldrich). Cells were then incubated with MTT solution for 2 h at 37° C. The resultant formazan crystals were dissolved in 200 μl/well of DMSO and absorbance was measured at 570 nm using a microplate reader (Thermo Scientific).

[2] = system: HELA; experiment: MTT cell viability, HELA; format: cell-based; conditions: Homo sapiens, cervical cancer, 48 h of drug treatment, average of three experiments
From the text: as §1

[3] = system: A549; experiment: MTT cell viability, A549; format: cell-based; conditions: Homo sapiens, lung cancer, 48 h of drug treatment, average of three experiments
From the text: as §1

[4] = system: MCF-7; experiment: MTT cell viability, MCF-7; format: cell-based; conditions: Homo sapiens, MCF7; breast cancer; 48 h of drug treatment; average of three experiments
From the text: as §1

[5] = system: normal epithelial cells (HMEC); experiment: Cell viability, normal epithelial cells; format: cell-based; conditions: Homo sapiens, 48 h of drug treatment, average of three experiments
Description: Cell viability studies: Cell viability was assessed using the MTT assay as described before. In brief, all cancer cell lines were seeded at a density of 4×10^4/well in 96 well flat-bottom plates. After 24 h from seeding, cells were treated with the synthesized compounds and left for an incubation period of 48 h. Upon reaching the indicated time point, the media was removed and replaced with 200 μL fresh media containing 0.5 mg/mL of MTT tetrazolium dye (Sigma-Aldrich). Cells were then incubated with MTT solution for 2 h at 37° C. The resultant formazan crystals were dissolved in 200 μl/well of DMSO and absorbance was measured at 570 nm using a microplate reader (Thermo Scientific).

[6] = system: MRSA-1 (clinical isolate); experiment: MIC broth microdilution, MRSA-1; format: cell-based, Staphylococcus aureus; conditions: Staphylococcus aureus, MRSA; overnight incubation, Mueller-Hinton broth; read-out: MIC MRSA-1 (clinical isolate)
Description: (§2) Antibacterial activity: The compounds were tested for the minimum inhibitory concentrations (MIC), which is the lowest concentration of a chemical required to inhibit visible microbial growth following overnight incubation. MIC values were determined using broth microdilution method according to the Clinical and Laboratory Standards Institute guidelines (CLSI, 2015, M07-A10). Mueller-Hinton broth was used as a culture medium in all the experiments. Exponentially growing bacterial cells were prepared in Mueller-Hinton broth at a concentration of approximately 5×10^5 CFU/mL. Two-fold serial dilutions of the test compound (8 concentrations ranged between 100-0.78 μg/mL) were tested. […] In each experiment, solvent (DMSO) was used as a negative control, un-treated control (composing of bacteria in Mueller-Hinton broth) was used as a growth control, blank (culture media alone) was used as sterility control. The 96-well microplate with the test compounds was incubated overnight at 37° C. Turbidity in wells indicated bacterial growth.
(§3) The compounds were tested on six MDR Gram-positive bacteria including three clinical isolates of methicillin-resistant Staphylococcus aureus (MRSA-1, MRSA-2 and MRSA-3) and three reference MRSA strains (ATCC33591, ATCC33592 and ATCC700699). They were also tested on three MDR Gram-negative bacteria including New Delhi metallo-beta-lactamase (NDM-1) positive, carbapenem-resistant E. coli (ATCC BAA2469), extended-spectrum beta-lactamase (ESBL) producing, colistin-resistant E. coli (CDC-AR-0346) and carbapenem-resistant Acinetobacter baumannii (ATCC BAA1605), in addition to two non-MDR bacteria from the same species, namely E. coli (ATCC 25922) Acinetobacter baumannii (ATCC 19606).

[7] = system: MRSA-2 (clinical isolate); experiment: MIC broth microdilution, MRSA-2; format: cell-based, Staphylococcus aureus; conditions: Staphylococcus aureus, MRSA; overnight incubation, Mueller-Hinton broth; read-out: MIC MRSA-2 (clinical isolate)
Description: as §2, §3

[8] = system: MRSA-3 (clinical isolate); experiment: MIC broth microdilution, MRSA-3; format: cell-based, Staphylococcus aureus; conditions: Staphylococcus aureus, MRSA; overnight incubation, Mueller-Hinton broth; read-out: MIC MRSA-3 (clinical isolate)
Description: as §2, §3

[9] = system: MRSA-ATCC33591; experiment: MIC broth microdilution, MRSA ATCC33591; format: cell-based, Staphylococcus aureus; conditions: Staphylococcus aureus; overnight incubation, Mueller-Hinton broth; read-out: MIC MRSA-ATCC33591
Description: as §2, §3

[10] = system: MRSA-ATCC33592; experiment: MIC broth microdilution, MRSA ATCC33592; format: cell-based, Staphylococcus aureus; conditions: Staphylococcus aureus; overnight incubation, Mueller-Hinton broth; read-out: MIC MRSA-ATCC33592
Description: as §2, §3

[11] = system: MRSA-ATCC700699 (VISA); experiment: MIC broth microdilution, MRSA ATCC700699 (VISA); format: cell-based, Staphylococcus aureus; conditions: for MIC: Staphylococcus aureus, strain intermediately resistant to vancomycin, overnight incubation, read-out: MIC MRSA-ATCC700699 (VISA)
Description: as §2, §3

[12] = system: E. coli ATCC BAA2469 (NDM-1 carbapenem-resistant); experiment: MIC broth microdilution, E. coli ATCC BAA2469; format: cell-based, Escherichia coli; conditions: overnight incubation; for MIC: Escherichia coli, ATCCBAA2469, MDR; for MIC E. coli ATCC BAA2469 (NDM-1 carbapenem-resistant): MDR
Description: as §2, §3

[13] = system: E. coli CDC-AR-0346 (ESBL, colistin resistant); experiment: MIC broth microdilution, E. coli CDC-AR-0346; format: cell-based, Escherichia coli; conditions: for MIC fold higher than that of colistin: E. coli CDC-AR-0346, colistin 6.25 μg/mL; for MIC: Escherichia coli, MDR, overnight incubation
Description: as §2, §3

[14] = system: Acinetobacter baumannii ATCC 19606; experiment: MIC broth microdilution, A. baumannii ATCC 19606; format: cell-based; conditions: Acinetobacter baumannii, ATCC19606; not MDR; overnight incubation
Description: as §2, §3

[15] = system: Acinetobacter baumannii ATCC BAA1605 (carbapenem-resistant); experiment: MIC broth microdilution, A. baumannii ATCC BAA1605; format: cell-based; conditions: Acinetobacter baumannii, ATCCBAA1605, MDR; overnight incubation
Description: as §2, §3

Work on `FC(F)(F)c1ccc(N/N=C2\C=C[C@@]3(CC2)CC[C@@H]2NCCc4c2n3c2ccccc42)cc1` (racemic) [Compound 1e] yielded an IC50 [1] of 0.487 ± 0.03 µM, an IC50 [2] of 2.56 ± 0.58 µM and an IC50 [3] of 4.011 ± 0.02 µM. The IC50 [4] was 1.86 ± 0.03 µM, the IC50 [5] was 2.91 ± 0.07 µM and the MIC [6] was 1.56 µg/mL (≈ 3.46 µM). For the same compound, the MIC [7] was 1.56 µg/mL (≈ 3.46 µM), the MIC [8] was 1.56 µg/mL (≈ 3.46 µM) and the MIC [9] was 3.12 µg/mL (≈ 6.94 µM). It also gave an MIC [10] of 3.12 µg/mL (≈ 6.94 µM), an MIC [11] of 3.12 µg/mL (≈ 6.94 µM) and an MIC [12] of 6.25 to 12.5 µg/mL (≈ 13.9 to 27.7 µM). The “MIC E. coli ATCC BAA2469 (NDM-1 carbapenem-resistant)” value [12] was 12.5 µg/mL (≈ 27.7 µM), the “MIC fold higher than that of colistin” value [13] was 2 fold and the MIC [13] was 12.5 µg/mL (≈ 27.7 µM). It also gave an MIC [14] of 6.25 µg/mL (≈ 13.9 µM) and an MIC [15] of 12.5 µg/mL (≈ 27.7 µM).
`Cc1ccc2c(c1)c1c3n2[C@@]2(C=C/C(=N\Nc4ccc(C(F)(F)F)cc4)CC2)CC[C@@H]3NCC1` [Compound 1h] gave an IC50 [1] of 1.78 ± 0.7 µM, an IC50 [2] of 3.5 ± 0.06 µM and an IC50 [3] of 4.897 ± 0.03 µM. For the same compound, the IC50 [4] was 3.72 ± 0.05 µM, the IC50 [5] was 11.53 ± 0.04 µM and the MIC [6] was 1.56 µg/mL (≈ 3.36 µM). It also gave an MIC [7] of 1.56 µg/mL (≈ 3.36 µM), an MIC [8] of 1.56 µg/mL (≈ 3.36 µM) and an MIC [9] of 1.56 µg/mL (≈ 3.36 µM). The MIC [10] was 1.56 µg/mL (≈ 3.36 µM), the MIC [11] was 1.56 µg/mL (≈ 3.36 µM) and the “MIC times less than the MIC of vancomycin” value ([11]; VISA strain ATCC 700699, vancomycin 8 μg/mL) was roughly 5 times. For the same compound, the MIC [12] was 6.25 to 12.5 µg/mL (≈ 13.5 to 26.9 µM), the “MIC E. coli ATCC BAA2469 (NDM-1 carbapenem-resistant)” value [12] was 12.5 µg/mL (≈ 26.9 µM) and the “MIC fold higher than that of colistin” value [13] was 2 fold. It also gave an MIC [13] of 12.5 µg/mL (≈ 26.9 µM), an MIC [14] of 6.25 µg/mL (≈ 13.5 µM) and an MIC [15] of 25 µg/mL (≈ 53.8 µM).
`FC(F)(F)Oc1ccc(N/N=C2\C=C[C@@]3(CC2)CC[C@@H]2NCCc4c2n3c2ccccc42)cc1` [Compound 1f] showed an IC50 [1] of 1.96 ± 0.05 µM, an IC50 [2] of 3.89 ± 0.07 µM and an IC50 [3] of 5.99 ± 0.03 µM. The IC50 [4] was 3.56 ± 0.1 µM, the IC50 [5] was 18.38 ± 0.05 µM and the MIC [6] was 6.25 µg/mL (≈ 13.4 µM). The MIC [7] was 6.25 µg/mL (≈ 13.4 µM), the MIC [8] was 6.25 µg/mL (≈ 13.4 µM) and the MIC [9] was 6.25 µg/mL (≈ 13.4 µM). For the same compound, the MIC [10] was 6.25 µg/mL (≈ 13.4 µM), the MIC [11] was 6.25 µg/mL (≈ 13.4 µM) and the MIC [12] was 25 µg/mL (≈ 53.6 µM). The MIC [13] was 25 µg/mL (≈ 53.6 µM), the MIC [14] was 12.5 µg/mL (≈ 26.8 µM) and the MIC [15] was 25 µg/mL (≈ 53.6 µM).
`COc1ccc2c(c1)c1c3n2[C@@]2(C=C/C(=N\Nc4ccc(C(F)(F)F)cc4)CC2)CC[C@@H]3NCC1` [Compound 1k] showed an IC50 [1] of 3.39 ± 0.04 µM, an IC50 [2] of 4.514 ± 0.03 µM and an IC50 [3] of 5.491 ± 0.05 µM. For the same compound, the IC50 [4] was 3.57 ± 0.34 µM, the IC50 [5] was 28.01 ± 0.09 µM and the MIC [6] was 1.56 µg/mL (≈ 3.25 µM). The MIC [7] was 1.56 µg/mL (≈ 3.25 µM), the MIC [8] was 1.56 µg/mL (≈ 3.25 µM) and the MIC [9] was 3.12 µg/mL (≈ 6.5 µM). It also gave an MIC [10] of 3.12 µg/mL (≈ 6.5 µM), an MIC [11] of 3.12 µg/mL (≈ 6.5 µM) and an MIC [12] of 25 µg/mL (≈ 52 µM). It also gave an MIC [13] of 50 µg/mL (≈ 104 µM), an MIC [14] of 6.25 µg/mL (≈ 13 µM) and an MIC [15] of 50 µg/mL (≈ 104 µM).
